ChEMBL document CHEMBL5131440, “Antischistosomal tetrahydro-γ-carboline sulfonamides” (Bioorg Med Chem Lett, 2022)
Values after ≈ are worked out from the molar mass of the structure shown.

Tests used:
[1] = Solubility of compound in pH 2 0.01 M HCl by nephelometry; assay type: physicochemical
[2] = Intrinsic clearance in mouse liver microsomes assessed per mg protein at 1 uM preincubated for 5 to 10 mins followed by NADPH-regenerating system addition and measured after 2 to 60 mins by LC-MS/MS analysis; assay type: ADME, Microsome; settings: time 2-60 min
[3] = Solubility of compound in pH 6.5 phosphate buffer by nephelometry; assay type: physicochemical
[4] = Lipophilicity, log D of compound at pH 7.4 by gradient HPLC analysis; assay type: physicochemical; settings: buffer
[5] = Intrinsic clearance in human liver microsomes assessed per mg protein at 1 uM preincubated for 5 to 10 mins followed by NADPH-regenerating system addition and measured after 2 to 60 mins by LC-MS/MS analysis; assay type: ADME, Microsome; settings: time 2-60 min
[6] = Cytotoxicity against rat L6 cells assessed as reduction in cell viability measured after 70 hrs by alamar blue reagent based fluorescence assay; assay type: toxicity
Schistosoma mansoni [7] = test: Antischistosomal activity against Schistosoma mansoni adult worms at 10 uM measured at 24 hrs interval for 72 hrs relative to control; assay type: functional
Schistosoma mansoni [8] = test: Antischistosomal activity against Schistosoma mansoni adult worms measured at 24 hrs interval for 72 hrs; assay type: functional, organism-based
Schistosoma mansoni [9] = test: Antischistosomal activity against Schistosoma mansoni NTS assessed as reduction in parasite viability measured at 24 hrs interval for 72 hrs by bright-field microscopy; assay type: functional, organism-based
Schistosoma mansoni [10] = test: Antischistosomal activity against Schistosoma mansoni Liberian adult worms assessed as reduction in worm viability measured after 72 hrs by microscopy; assay type: functional, organism-based

Row | SMILES | solubility kinetic [1] [µg/mL] | intrinsic clearance (CLint) [2] [µL/min] | solubility kinetic [3] [µg/mL] | logD [4] | intrinsic clearance [5] [µL/min] | IC50 at 70 h [6] [µM] | Activity (Schistosoma mansoni [7]) [%] | IC50 (Schistosoma mansoni [8]) [µM] | IC50 (Schistosoma mansoni [9]) [µM] | IC50 (Schistosoma mansoni [10]) [µM]
1 | Cc1ccc(S(=O)(=O)N2CCc3[nH]c4ccccc4c3C2)cc1 | 1.6 (≈ 4.9 µM) | 540 | 1.6 (≈ 4.9 µM) | 4.1 | 170 | 29 | – | – | – | –
2 | NC(=O)c1ccc2[nH]c3c(c2c1)CN(S(=O)(=O)c1ccc(F)cc1)CC3 | 12.5 (≈ 33.5 µM) | 81 | 6.3 (≈ 16.9 µM) | 2.6 | 124 | 100 | – | – | – | –
3 | O=C(Nc1ccc(F)cc1)N1CCc2[nH]c3ccccc3c2C1 | 6.3 (≈ 20.4 µM) | 130 | 6.3 (≈ 20.4 µM) | 3.4 | 82 | 85 | – | – | – | –
4 | O=S(=O)(c1ccc(C(F)(F)F)cc1)N1CCc2[nH]c3ccccc3c2C1 | < 1.6 | 431 | < 1.6 | 4.3 | 50 | 81 | – | – | – | –
5 | O=S(=O)(c1ccccc1)N1CCc2[nH]c3ccccc3c2C1 | 1.6 (≈ 5.12 µM) | > 866 | 1.6 (≈ 5.12 µM) | 3.9 | 250 | 100 | – | – | – | –
6 | O=C(c1ccc(F)cc1)N1CCc2[nH]c3ccccc3c2C1 | 6.3 (≈ 21.4 µM) | 184 | 6.3 (≈ 21.4 µM) | 3.3 | 111 | 69 | 24 | – | – | –
7 | O=S(=O)(c1ccc(F)cc1)N1CCc2[nH]c3ccc(F)cc3c2C1 | 3.1 (≈ 8.9 µM) | > 866 | 1.6 (≈ 4.59 µM) | 4.1 | 105 | 150 | – | – | – | –
8 | O=S(=O)(c1ccc(Cl)cc1)N1CCc2[nH]c3ccccc3c2C1 | 1.6 (≈ 4.61 µM) | 607 | 1.6 (≈ 4.61 µM) | 4.2 | 74 | 53 | – | – | – | –
9 | O=S(=O)(c1ccc(F)cc1)N1CCc2[nH]c3ccccc3c2CC1 | < 1.6 | > 866 | < 1.6 | 4.2 | 123 | 83 | – | – | – | –
10 | O=S(=O)(Cc1ccc(F)cc1)N1CCc2[nH]c3ccccc3c2C1 | 3.1 (≈ 9 µM) | 688 | 1.6 (≈ 4.65 µM) | 3.9 | 135 | 56 | – | – | – | –
11 | O=S(=O)(c1ccc(Br)cc1)N1CCc2[nH]c3ccccc3c2C1 | < 1.6 | 446 | < 1.6 | 4.4 | 102 | 26 | 67 | 4.4 | 4.9 | –
12 | O=C(O)c1ccc(S(=O)(=O)N2CCc3[nH]c4ccccc4c3C2)cc1 | 3.1 (≈ 8.7 µM) | < 7 | 25 (≈ 70.1 µM) | 1.6 | 11 | 190 | – | – | – | –
13 | O=C(c1ccc2[nH]c3c(c2c1)CN(S(=O)(=O)c1ccc(F)cc1)CC3)N1CCOCC1 | 12.5 (≈ 28.2 µM) | 120 | 6.3 (≈ 14.2 µM) | 3 | 89 | 130 | – | – | – | –
14 | CS(=O)(=O)c1ccc(S(=O)(=O)N2CCc3[nH]c4ccccc4c3C2)cc1 | 3.1 (≈ 7.94 µM) | 156 | 3.1 (≈ 7.94 µM) | 3.4 | 57 | > 250 | 43 | – | 3.3 | –
15 | O=S(=O)(C1CCOCC1)N1CCc2[nH]c3ccccc3c2C1 | 25 (≈ 78 µM) | 674 | 25 (≈ 78 µM) | 2.9 | 34 | 160 | – | – | – | –
16 | O=S(=O)(c1ccc(F)cc1)N1CCc2c([nH]c3ccccc23)C1 | < 1.6 | 445 | < 1.6 | 4.1 | 120 | 53 | – | – | – | –
17 | O=S(=O)(c1cccnc1)N1CCc2[nH]c3ccccc3c2C1 | 12.5 (≈ 39.9 µM) | 561 | 6.3 (≈ 20.1 µM) | 3.1 | 117 | 110 | – | – | – | –
18 | O=S(=O)(c1ccc(F)cc1)N1CCc2[nH]c3ccccc3c2C1 | 1.6 (≈ 4.84 µM) | > 866 | 1.6 (≈ 4.84 µM) | 4 | 120 | 52 | 59 | 4.2 | 1.2 | –
19 | O=C1CCN(S(=O)(=O)c2ccc(F)cc2)CC(=O)c2ccccc2N1 | 50 (≈ 138 µM) | 107 | 50 (≈ 138 µM) | 2.5 | 40 | > 280 | – | – | – | –
20 | O=S(=O)(c1ccc(F)cc1)N1CCc2[nH]c3ncccc3c2C1 | 50 (≈ 151 µM) | 339 | 12.5 (≈ 37.7 µM) | 3.2 | 62 | 82 | – | – | – | –
21 | CS(=O)(=O)N1CCc2[nH]c3ccccc3c2C1 | 25 (≈ 99.9 µM) | 21 | 25 (≈ 99.9 µM) | 2.6 | 12 | 290 | – | – | – | –
22 | O=S(=O)(c1cnc[nH]1)N1CCc2[nH]c3ccccc3c2C1 | 50 (≈ 165 µM) | 17 | 50 (≈ 165 µM) | 2 | < 7 | 170 | – | – | – | –
23 | O=C(O)c1ccc2[nH]c3c(c2c1)CN(S(=O)(=O)c1ccc(F)cc1)CC3 | 3.1 (≈ 8.28 µM) | < 7 | 50 (≈ 134 µM) | 1.4 | < 7 | 240 | – | – | – | –
24 | N#Cc1ccc2[nH]c3c(c2c1)CN(S(=O)(=O)c1ccc(F)cc1)CC3 | 1.6 (≈ 4.5 µM) | 230 | 1.6 (≈ 4.5 µM) | 3.8 | 399 | 33 | – | – | – | –
25 | NC(=O)Cn1c2c(c3ccccc31)CN(S(=O)(=O)c1ccc(F)cc1)CC2 | 3.1 (≈ 8 µM) | 176 | 3.1 (≈ 8 µM) | – | 75 | 150 | – | – | – | –
26 | O=C(C1CCCCC1)N1CC(=O)N2CCc3ccccc3C2C1 (centres undefined) [PRAZIQUANTEL] | – | – | – | – | – | – | – | – | – | 0.077
